Measured values taken from patent US5962487A, “Antipicornaviral compounds and methods for their use and preparation” (Agouron Pharmaceuticals, Inc., priority 1997, dated 1999).

Tests used:
[1] = biological target: T1, Rhinovirus 3C protease (RVP) serotype-14 (Human rhinovirus 14, UniProt P03303); assay: Inhibition of Rhinovirus Protease, serotype 14 (FRET assay); assay type: biochemical; conditions: for Ki / inhibition at 10 µM: RVP serotype-14; for Ki: 10 minute preincubation with 50 nM RVP prior to addition of substrate, read-out: INHIB (Ki); for kinact/KI: read-out: kobs/I; for inhibition at 10 µM: 10 μM compound, 10 minute preincubation with 50 nM RVP, read-out: INHIB (percent inhibition)
T1 construct: Recombinant Rhinovirus 3C proteases from serotypes 14, 16, 2 or 89 were prepared; made in house
Method: Stock solutions (50 mM, in DMSO) of various compounds were prepared; dilutions were in the same solvent. Recombinant Rhinovirus 3C proteases from serotypes 14, 16, 2 or 89 were prepared by the following standard chromatographic procedures: (1) ion exchange using Q Sepharose Fast Flow from Pharmacia; (2) affinity chromatography using Affi-Gel Blue from Biorad; and (3) sizing using Sephadex G-100 from Pharmacia. Assays contained 2% DMSO, 50 mM tris pH 7.6, 1 mM EDTA, a compound at the indicated concentrations, approximately 1 μM substrate, and 50-100 nM protease. For Ki determinations, the compound and the enzyme were preincubated for 10 minutes at 30° C. prior to addition of the substrate (substrate start). The kobs/I values were obtained from reactions initiated by addition of enzyme rather than substrate. RVP activity is measured in the fluorescence resonance energy transfer assay. The substrate was (N-terminal) DABCYL-(Gly-Arg-Ala-Val-Phe-Gln-Gly-Pro-Val-Gly)-EDANS. In the uncleaved peptide, the EDANS fluorescence was quenched by the proximal DABCYL moiety. When the peptide was cleaved, the quenching was relieved, and activity was measured as an increase in fluorescence signal.
In the above table, all data is for RVP serotype-14 unless otherwise noted in parentheses. All strains of human rhinovirus (HRV) were purchased from American Type Culture Collection (ATCC), except for serotype 14, which was produced from the infectious cDNA clone constructed and supplied to us by Dr. Roland Rueckert at the Institute for Molecular Virology, University of Wisconsin, Madison, Wis. The column designated INHIB represents the percent inhibition, with the concentration of the compound in μM indicated in parentheses, unless Ki was assigned as designated by (Ki), at 10 minute preincubation with 50 nM RVP prior to addition of substrate was used. The data in the column designated kobs/I was measured from progress curves in enzyme start experiments.

[2] = test system: HRV-14; assay: Antirhinoviral HI-HeLa Cell Culture Assay (cell protection, XTT), HRV-14; assay type: cell-based, human rhinovirus; conditions: for TI: CC50/EC50, HRV serotype-14, 2880 min; for EC50: Rhinovirus B, HRV14, 48 h, HRV serotype-14 infected HI-HeLa cells, XTT, two days
Method: In the Cell Protection Assay, the ability of compounds to protect cells against HRV infection was measured by the XTT dye reduction method. This method is described in O. S. Weislow, R. Kiser, D. L. Fine, J. Bader, R. H. Shoemaker, and M. R. Boyd, J. Natl. Cancer Inst. 1989, 81, 577-586, which document is entirely incorporated herein by reference.
(§1) HI-HeLa cells were infected with HRV-14 (unless otherwise noted) at a multiplicity of infection (m.o.i.) of 0.13 (virus particles/cell) or mock-infected with medium only. Infected or mock-infected cells were resuspended at 8×10^5 cells per mL and incubated with appropriate concentrations of compounds of formulas I and II. Two days later, XTT/PMS was added to test plates, and the amount of formazan produced was quantified spectrophotometrically at 450/650 nm. The EC50 was calculated as the concentration of compound that increased the percentage of formazan production in compound-treated, virus-infected cells to 50% of that produced by compound-free mock-infected cells. The 50% cytotoxic dose (CC50) was calculated as the concentration of compound that decreased the percentage of formazan produced in compound-treated, mock-infected cells to 50% of that produced in compound-free, mock-infected cells. The therapeutic index (TI) was calculated by dividing the CC50 by the EC50.
(§2) All strains of human rhinovims (HRV) for use in this assay were purchased from American Type Culture Collection (ATCC), except for HRV serotype-14, which was produced from the infectious cDNA clone, constructed and supplied to us by Dr. Roland Rueckert at the Institute for Molecular Virology, University of Wisconsin, Madison, Wis. HRV stocks were propagated, and antiviral assays were performed in HI-HeLa (ATCC). Cells were grown in Minimal Essential Medium, available from Life Technologies, with 10% fetal bovine serum.
The compounds were tested against control compounds WIN 51711, WIN 52084, and WIN 54954, all obtained from Sterling-Winthrop Pharmaceuticals, and control compound Pirodavir, obtained from Janssen Pharmaceuticals. Antiviral data obtained for the test compounds are shown in Table 2 where all data are for HRV serotype-14 unless otherwise noted in parentheses.

[3] = in vitro; assay type: cell-based; conditions: human, hi-hela cells
Method: as §1, §2

T1 sequence (P03303 1538-1719): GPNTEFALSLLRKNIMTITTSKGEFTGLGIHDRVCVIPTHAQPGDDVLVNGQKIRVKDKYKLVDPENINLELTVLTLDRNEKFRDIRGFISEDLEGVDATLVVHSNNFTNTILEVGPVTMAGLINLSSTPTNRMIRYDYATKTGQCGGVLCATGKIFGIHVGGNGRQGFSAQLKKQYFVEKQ

Row | SMILES | Ki [1] | kinact/KI [1] | TI [2] | EC50 [2] | CC50 at 48 h [3] | inhibition at 10 µM [1]
1 | CCOC(=O)/C=C/[C@H](CCC(N)=O)NC(=O)[C@@H]1[C@@H](C)CCN1C(=O)[C@H](CC(C)C)NC(=O)OCc1ccccc1 [Compound 21, Ethyl-3-[CBZ-L-Leu-L-(3S-Methyl)-Pro-L-Gln]-E-Propenoate] | 50 µM | 256 M⁻¹ s⁻¹ | > 15 | 22000 nM | > 320 µM | 
2 | CCOC(=O)/C=C/[C@H](CCC(N)=O)NC(=O)[C@H](Cc1ccccc1)N(C)C(=O)[C@H](CC(C)C)NC(=O)SCC1CCCCC1 [Compound 40] |  | 12100 M⁻¹ s⁻¹ | 141 | 320 nM | 45 µM | 
3 | CCSC(=O)N[C@@H](CC(C)C)C(=O)N(C)[C@@H](Cc1ccccc1)C(=O)N[C@H](/C=C1\CCOC1=O)CCC(N)=O [Compound 8, 2-(Ethylthiocarbonyl-L-Leu-L-N-Me-Phe-L-Gln)-E-(α-Vinyl-γ-Butyrolactone)] |  | 6880 M⁻¹ s⁻¹ | > 32 | 10000 nM | > 320 µM | 
4 | CCSC(=O)N[C@@H](CC(C)C)C(=O)N(C)[C@@H](Cc1ccccc1)C(=O)N[C@H](/C=C/C(=O)N1CCOC1=O)CCC(N)=O [Compound 17, 1-[2'-Oxazolidon-3'-yl]-3-(Ethylthiocarbonyl-L-Leu-L-N-Me-Phe-L-Gln)-E-Propepone] |  | 750000 M⁻¹ s⁻¹ | 106 | 500 nM | 53 µM | 
5 | COCCOC(=O)/C=C/[C@H](CCC(N)=O)NC(=O)[C@H](Cc1ccccc1)N(C)C(=O)[C@H](CC(C)C)NC(=O)SC1CCCC1 [Compound 58] |  | 24300 M⁻¹ s⁻¹ | 113 | 560 nM | 63 µM | 
6 | CCOC(=O)/C=C/C(CCC(N)=O)NC(=O)[C@@H]1CCc2ncc(NC(=O)SCC)c(=O)n21 (some centres unmarked) [Compound 52] |  | 31100 M⁻¹ s⁻¹ | > 3 | 32000 nM | > 100 µM | 
7 | CCOC(=O)/C(C)=C/[C@H](CCC(N)=O)NC(=O)[C@H](Cc1ccc(C)cc1)N(C)C(=O)[C@@H](NC(=O)SC1CCCC1)C(C)(C)C [Compound 49] |  | 1910 M⁻¹ s⁻¹ | 710 | 100 nM | 71 µM | 
8 | CCOC(=O)/C=C/[C@H](CCC(N)=O)NC(=O)[C@H](Cc1ccccc1)N(C)C(=O)OCc1ccccc1 [Compound 1, Ethyl-3-(CBZ-L-N-Me-Phe-L-Gln)-E-Propenoate] | > 100 µM | 52 M⁻¹ s⁻¹ | 13 | 20000 nM | 251 µM | 
9 | CCOC(=O)/C=C/[C@H](CCC(N)=O)NC(=O)[C@H](Cc1ccc(C)cc1)N(C)C(=O)[C@@H](NC(=O)SC1CCCC1)C(C)(C)C [Compound 48] |  | 14000 M⁻¹ s⁻¹ | > 20 | 500 nM | > 10 µM | 
10 | CCOC(=O)/C=C/[C@H](CCC(N)=O)NC(=O)[C@H](Cc1ccccc1)N(C)C(=O)[C@H](CCc1ccccc1)NC(=O)SCc1ccccc1 [Compound 9, Ethyl-3-(Benzylthiocarbonyl-L-hPhe-L-N-Me-Phe-L-Gln)-E-Propenoate] | 4.4 µM | 57000 M⁻¹ s⁻¹ | 225 | 250 nM | 56.2 µM | 
11 | Cc1cc(CCCCCCCOc2ccc(C3=NCCO3)cc2)on1 [WIN 51711, reference compound] |  |  | > 77 | 780 nM | > 60 µM | 
12 | CCSC(=O)N[C@@H](CC(C)C)C(=O)N(C)[C@@H](Cc1ccccc1)C(=O)N[C@H](/C=C/C(=O)N1CCc2ccccc21)CCC(N)=O [Compound 7, 1-(2',3'-Dihydroindolin-1-yl)-3-(Ethylthiocarbonyl-L-Leu-L-N-Me-Phe-L-Gln)-E-Propenone] |  | 3820 M⁻¹ s⁻¹ | 37 | 1300 nM | 47.9 µM | 
13 | CCOC(=O)/C=C/[C@H](CCC(N)=O)NC(=O)Cn1c(-c2ccccc2)ncc(NC(=O)OCc2ccccc2)c1=O [Compound 30, Ethyl-3-([(5-CBZ-Amino)-2-Phenyl-6-Oxo-1,6-Dihydro-1-Pyrimidinyl]-L-Gln)-E-Propenoate] | 55 µM | 163 M⁻¹ s⁻¹ | 25 | 7200 nM | 177 µM | 
14 | CCOC(=O)/C=C/C(CCC(N)=O)NC(=O)[C@H](Cc1ccccc1)N1CC[C@@H](NC(=O)OCc2ccccc2)C1=O (some centres unmarked) [Compound 55] |  |  | > 2 | 50000 nM | > 100 µM | 20%
15 | CCOC(=O)/C(C)=C/[C@H](CCC(N)=O)NC(=O)[C@H](Cc1ccccc1)N(C)C(=O)[C@H](CC(C)C)NC(=O)SC1CCCCC1 [Compound 43] |  | 2200 M⁻¹ s⁻¹ | 16 | 3500 nM | 56.2 µM | 
16 | CCOC(=O)/C=C/C(CCC(N)=O)NC(=O)[C@@H]1CCc2ncc(NC(=O)SC3CCCC3)c(=O)n21 (some centres unmarked) [Compound 51] |  | 43900 M⁻¹ s⁻¹ | > 8 | 12600 nM | > 100 µM | 
17 | CCSC(=O)N[C@H](C(=O)N(C)[C@@H](Cc1ccccc1)C(=O)N[C@H](/C=C1\CCOC1=O)CCC(N)=O)C(C)C [Compound 12, 2-(Ethylthiocarbonyl-L-Val-L-N-Me-Phe-L-Gln)-E-(α-Vinyl-γ-Butyrolactone)] |  | 5070 M⁻¹ s⁻¹ | > 76 | 4200 nM | > 320 µM | 
18 | CC(C)C[C@H](NC(=O)SC1CCCC1)C(=O)N(C)[C@@H](Cc1ccccc1)C(=O)N[C@H](/C=C/C(=O)OCc1ccccc1)CCC(N)=O [Compound 56] |  | 15400 M⁻¹ s⁻¹ | 13 | 1600 nM | 20 µM | 
19 | CCOC(=O)/C(C)=C/[C@H](CCC(N)=O)NC(=O)[C@H](Cc1ccccc1)N(C)C(=O)[C@H](CSc1ccccc1)NC(=O)SC1CCCC1 [Compound 47] |  | 6500 M⁻¹ s⁻¹ | 14 | 1300 nM | 18 µM | 
20 | CCOC(=O)/C=C/[C@H](CCC(N)=O)NC(=O)[C@H](Cc1ccccc1)N(C)C(=O)[C@H](CC(C)C)NC(=O)SC1CCCCC1 [Compound 42] |  | 15000 M⁻¹ s⁻¹ | 111 | 450 nM | 50.1 µM | 
21 | CON(C)C(=O)/C=C/[C@H](CCC(N)=O)NC(=O)[C@@H]1[C@@H](c2ccccc2)CCN1C(=O)[C@H](CC(C)C)NC(=O)OCc1ccccc1 [Compound 22, N-Methoxy, N-Methyl-3-[CBZ-L-Leu L-(3R-Phenyl)-Pro-L-Gln]-E-Propenamide] |  | 100 M⁻¹ s⁻¹ | > 2 | 178000 nM | > 320 µM | 
22 | CCOC(=O)/C=C/C(CCC(N)=O)NC(=O)[C@H](Cc1ccccc1)N1CC[C@@H](NC(=O)SC2CCCCC2)C1=O (some centres unmarked) [Compound 54] |  |  | > 6 | 17800 nM | > 100 µM | 55%
23 | CCOC(=O)/C(C)=C/[C@H](CCC(N)=O)NC(=O)[C@H](Cc1ccccc1)N(C)C(=O)[C@H](CC(C)C)NC(=O)SC(C)C [Compound 39] |  | 2330 M⁻¹ s⁻¹ | 113 | 1600 nM | 180 µM | 
24 | Cc1cc(CCCCCCCOc2ccc(C3=N[C@@H](C)CO3)cc2)on1 [WIN 52084, reference compound] |  |  | > 143 | 70 nM | > 10 µM | 
